Measured values from patent publication US20070212408A1, “Stable Pharmaceutical Composition Containing Benzimidazole Derivatives and Method of Manufacturing the Same” (priority 2004, published 2007).

Columns and labels:
[1] = Storage stability test of inclusion complexes containing lansoprazole (Test Example 1), HPLC content; type: physicochemical; settings: 60° C., 75% RH
[2] = Storage stability test of inclusion complexes containing lansoprazole (Test Example 3), HPLC content; type: physicochemical; settings: 60° C., 75% RH, relative to initial content

In the case of `Cc1c(OCC(F)(F)F)ccnc1C[S+]([O-])c1nc2ccccc2[nH]1` (stereo not drawn) [lansoprazole], the “Content after 1 wk (%)” value ([1]; 1 wk, relative to initial content, HPLC) is reported as 96.62%, the “Content after 2 wk (%)” value ([1]; 2 wk, relative to initial content, HPLC) is reported as 76.88% and the “Color Change after 4 wk” value ([1]; 4 wk) is reported as “Dark brown”. The “Content after 4 wk (%)” value ([1]; 4 wk, relative to initial content, HPLC) was “Not detected”, the “Content after 1 wk (%)” value ([2]; 1 wk) was 96.62% and the “Content after 2 wk (%)” value ([2]; 2 wk) was 76.88%.
